According to article PMC9851200, “Multiparameter phenotypic screening for endogenous TFEB and TFE3 translocation identifies novel chemical series modulating lysosome function” (Autophagy, 2022):

Columns and labels:
Type in all cases: binding
[1] = target: kinases (KINOMEscan panel) (Homo sapiens, UniProt O00506)
[2] = target: kinases (KINOMEscan panel) (Homo sapiens, UniProt O43283)
[3] = target: kinases (KINOMEscan panel) (Homo sapiens, UniProt O60285)
[4] = target: kinases (KINOMEscan panel) (Homo sapiens, UniProt O75582); settings: NEW KINOMEscan
[5] = target: kinases (KINOMEscan panel) (Homo sapiens, UniProt O75676); settings: NEW KINOMEscan
[6] = target: kinases (KINOMEscan panel) (Homo sapiens, UniProt P07947)
[7] = target: kinases (KINOMEscan panel) (Homo sapiens, UniProt P08581)
[8] = target: kinases (KINOMEscan panel) (Homo sapiens, UniProt P27361)
[9] = target: kinases (KINOMEscan panel) (Homo sapiens, UniProt P31152)
[10] = target: kinases (KINOMEscan panel) (Homo sapiens, UniProt P35968)
[11] = target: kinases (KINOMEscan panel) (Homo sapiens, UniProt P36507)
[12] = target: kinases (KINOMEscan panel) (Homo sapiens, UniProt P42679)
[13] = target: kinases (KINOMEscan panel) (Homo sapiens, UniProt P46734)
[14] = target: kinases (KINOMEscan panel) (Homo sapiens, UniProt P51812)
[15] = target: kinases (KINOMEscan panel) (Homo sapiens, UniProt Q02750)
[16] = target: kinases (KINOMEscan panel) (Homo sapiens, UniProt Q02763)
[17] = target: kinases (KINOMEscan panel) (Homo sapiens, UniProt Q05397)
[18] = target: kinases (KINOMEscan panel) (Homo sapiens, UniProt Q13043)
[19] = target: kinases (KINOMEscan panel) (Homo sapiens, UniProt Q13163)
[20] = target: kinases (KINOMEscan panel) (Homo sapiens, UniProt Q13164)
[21] = target: kinases (KINOMEscan panel) (Homo sapiens, UniProt Q13188)
[22] = target: kinases (KINOMEscan panel) (Homo sapiens, UniProt Q13882)
[23] = target: kinases (KINOMEscan panel) (Homo sapiens, UniProt Q15208)
[24] = target: kinases (KINOMEscan panel) (Homo sapiens, UniProt Q15349)
[25] = target: kinases (KINOMEscan panel) (Homo sapiens, UniProt Q15831)
[26] = target: kinases (KINOMEscan panel) (Homo sapiens, UniProt Q16288)
[27] = target: kinases (KINOMEscan panel) (Homo sapiens, UniProt Q16620)
[28] = target: kinases (KINOMEscan panel) (Homo sapiens, UniProt Q32MK0)
[29] = target: kinases (KINOMEscan panel) (Homo sapiens, UniProt Q6P2M8)
[30] = target: kinases (KINOMEscan panel) (Homo sapiens, UniProt Q86UX6)
[31] = target: kinases (KINOMEscan panel) (Homo sapiens, UniProt Q8IY84)
[32] = target: kinases (KINOMEscan panel) (Homo sapiens, UniProt Q99683)
[33] = target: kinases (KINOMEscan panel) (Homo sapiens, UniProt Q9H093)
[34] = target: kinases (KINOMEscan panel) (Homo sapiens, UniProt Q9H2G2)
[35] = target: kinases (KINOMEscan panel) (Homo sapiens, UniProt Q9NY57)
[36] = target: kinases (KINOMEscan panel) (Homo sapiens, UniProt Q9P289)
[37] = target: kinases (KINOMEscan panel) (Homo sapiens, UniProt Q9UEE5)
[38] = target: kinases (KINOMEscan panel) (Homo sapiens, UniProt Q9UK32)
[39] = target: kinases (KINOMEscan panel) (Homo sapiens, UniProt Q9Y2H1)
[40] = target: kinases (KINOMEscan panel) (Homo sapiens, UniProt Q9Y2K2)

Sequence of kinases (KINOMEscan panel) (Homo sapiens, UniProt Q15349) (Q15349 whole entry): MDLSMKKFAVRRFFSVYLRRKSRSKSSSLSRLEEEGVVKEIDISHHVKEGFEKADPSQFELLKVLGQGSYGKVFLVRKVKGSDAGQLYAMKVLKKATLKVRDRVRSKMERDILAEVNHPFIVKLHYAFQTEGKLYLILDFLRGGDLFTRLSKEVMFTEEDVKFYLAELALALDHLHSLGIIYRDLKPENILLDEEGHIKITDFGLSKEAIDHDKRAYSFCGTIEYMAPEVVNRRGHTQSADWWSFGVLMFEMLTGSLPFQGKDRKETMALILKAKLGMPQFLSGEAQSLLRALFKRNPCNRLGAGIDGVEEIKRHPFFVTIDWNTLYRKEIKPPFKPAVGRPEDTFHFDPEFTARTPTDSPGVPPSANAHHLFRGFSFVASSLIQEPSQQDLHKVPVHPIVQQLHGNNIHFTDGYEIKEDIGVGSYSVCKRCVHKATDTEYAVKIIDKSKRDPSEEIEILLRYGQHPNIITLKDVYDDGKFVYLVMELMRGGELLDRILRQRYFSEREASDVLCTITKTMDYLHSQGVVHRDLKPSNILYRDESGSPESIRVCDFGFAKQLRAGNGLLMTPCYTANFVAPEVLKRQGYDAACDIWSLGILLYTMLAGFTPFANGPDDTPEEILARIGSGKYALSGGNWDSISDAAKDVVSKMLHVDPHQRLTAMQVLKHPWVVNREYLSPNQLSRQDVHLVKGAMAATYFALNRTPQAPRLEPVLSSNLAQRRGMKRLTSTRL
Sequence of kinases (KINOMEscan panel) (Homo sapiens, UniProt O75676) (O75676 whole entry): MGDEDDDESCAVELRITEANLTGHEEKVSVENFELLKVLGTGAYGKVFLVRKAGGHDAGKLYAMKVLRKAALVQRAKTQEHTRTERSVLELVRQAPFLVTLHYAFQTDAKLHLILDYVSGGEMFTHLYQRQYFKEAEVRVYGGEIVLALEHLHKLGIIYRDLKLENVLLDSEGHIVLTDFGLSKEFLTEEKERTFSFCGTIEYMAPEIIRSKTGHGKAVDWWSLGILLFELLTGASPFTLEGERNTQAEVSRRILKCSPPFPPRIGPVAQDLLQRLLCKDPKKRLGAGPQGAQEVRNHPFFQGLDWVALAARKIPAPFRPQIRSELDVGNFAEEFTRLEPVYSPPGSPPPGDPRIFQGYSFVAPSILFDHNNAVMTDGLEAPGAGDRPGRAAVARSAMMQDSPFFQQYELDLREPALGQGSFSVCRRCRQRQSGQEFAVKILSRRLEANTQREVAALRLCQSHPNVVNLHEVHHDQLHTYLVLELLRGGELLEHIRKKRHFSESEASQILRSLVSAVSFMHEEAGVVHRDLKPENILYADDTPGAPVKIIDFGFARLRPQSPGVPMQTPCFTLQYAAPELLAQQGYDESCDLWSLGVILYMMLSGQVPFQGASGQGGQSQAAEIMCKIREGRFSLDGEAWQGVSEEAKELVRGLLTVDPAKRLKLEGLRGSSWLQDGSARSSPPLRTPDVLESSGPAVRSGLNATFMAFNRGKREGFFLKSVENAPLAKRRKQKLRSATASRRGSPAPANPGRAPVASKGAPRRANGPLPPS
Sequence of kinases (KINOMEscan panel) (Homo sapiens, UniProt P51812) (P51812 whole entry): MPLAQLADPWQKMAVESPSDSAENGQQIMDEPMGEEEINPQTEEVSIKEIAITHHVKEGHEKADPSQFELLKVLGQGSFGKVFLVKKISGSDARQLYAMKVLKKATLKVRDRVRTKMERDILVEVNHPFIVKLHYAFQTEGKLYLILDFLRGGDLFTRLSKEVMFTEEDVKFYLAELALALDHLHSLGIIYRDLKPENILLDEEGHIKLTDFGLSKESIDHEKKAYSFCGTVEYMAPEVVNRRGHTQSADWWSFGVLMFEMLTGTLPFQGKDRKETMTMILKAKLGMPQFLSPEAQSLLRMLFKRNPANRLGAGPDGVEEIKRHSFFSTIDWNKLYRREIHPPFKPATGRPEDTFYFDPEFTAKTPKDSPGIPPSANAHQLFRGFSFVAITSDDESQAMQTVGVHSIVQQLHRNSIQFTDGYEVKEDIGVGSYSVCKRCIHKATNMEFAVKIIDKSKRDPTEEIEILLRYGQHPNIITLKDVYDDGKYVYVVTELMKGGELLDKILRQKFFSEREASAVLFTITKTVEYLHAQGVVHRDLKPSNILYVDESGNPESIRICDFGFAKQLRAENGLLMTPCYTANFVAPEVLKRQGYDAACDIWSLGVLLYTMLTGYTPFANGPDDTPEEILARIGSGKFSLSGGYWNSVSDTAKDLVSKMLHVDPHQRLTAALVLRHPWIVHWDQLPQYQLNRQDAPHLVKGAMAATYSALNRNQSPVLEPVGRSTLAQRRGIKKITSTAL
Sequence of kinases (KINOMEscan panel) (Homo sapiens, UniProt O75582) (O75582 whole entry): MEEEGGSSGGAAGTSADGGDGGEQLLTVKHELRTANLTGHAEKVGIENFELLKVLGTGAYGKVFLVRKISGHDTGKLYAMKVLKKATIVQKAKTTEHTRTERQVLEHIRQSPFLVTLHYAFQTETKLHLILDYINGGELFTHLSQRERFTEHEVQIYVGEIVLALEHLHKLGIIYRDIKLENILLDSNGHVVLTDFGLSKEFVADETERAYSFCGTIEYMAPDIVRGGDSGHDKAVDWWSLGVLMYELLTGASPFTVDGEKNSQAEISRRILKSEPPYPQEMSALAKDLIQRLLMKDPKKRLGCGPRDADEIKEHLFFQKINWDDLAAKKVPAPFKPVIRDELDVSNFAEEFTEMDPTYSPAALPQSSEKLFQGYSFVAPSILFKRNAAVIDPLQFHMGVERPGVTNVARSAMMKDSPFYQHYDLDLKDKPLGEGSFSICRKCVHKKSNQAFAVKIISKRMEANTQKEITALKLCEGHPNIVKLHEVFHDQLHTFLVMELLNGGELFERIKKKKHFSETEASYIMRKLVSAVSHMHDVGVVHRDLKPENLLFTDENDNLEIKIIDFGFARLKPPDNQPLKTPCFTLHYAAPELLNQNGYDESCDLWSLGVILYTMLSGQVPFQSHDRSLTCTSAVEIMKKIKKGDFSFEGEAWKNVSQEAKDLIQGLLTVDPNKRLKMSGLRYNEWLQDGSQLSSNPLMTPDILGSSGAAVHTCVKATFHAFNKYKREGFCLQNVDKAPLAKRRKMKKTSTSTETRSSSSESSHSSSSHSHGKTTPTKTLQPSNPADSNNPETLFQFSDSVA
Sequence of kinases (KINOMEscan panel) (Homo sapiens, UniProt Q9UK32) (Q9UK32 whole entry): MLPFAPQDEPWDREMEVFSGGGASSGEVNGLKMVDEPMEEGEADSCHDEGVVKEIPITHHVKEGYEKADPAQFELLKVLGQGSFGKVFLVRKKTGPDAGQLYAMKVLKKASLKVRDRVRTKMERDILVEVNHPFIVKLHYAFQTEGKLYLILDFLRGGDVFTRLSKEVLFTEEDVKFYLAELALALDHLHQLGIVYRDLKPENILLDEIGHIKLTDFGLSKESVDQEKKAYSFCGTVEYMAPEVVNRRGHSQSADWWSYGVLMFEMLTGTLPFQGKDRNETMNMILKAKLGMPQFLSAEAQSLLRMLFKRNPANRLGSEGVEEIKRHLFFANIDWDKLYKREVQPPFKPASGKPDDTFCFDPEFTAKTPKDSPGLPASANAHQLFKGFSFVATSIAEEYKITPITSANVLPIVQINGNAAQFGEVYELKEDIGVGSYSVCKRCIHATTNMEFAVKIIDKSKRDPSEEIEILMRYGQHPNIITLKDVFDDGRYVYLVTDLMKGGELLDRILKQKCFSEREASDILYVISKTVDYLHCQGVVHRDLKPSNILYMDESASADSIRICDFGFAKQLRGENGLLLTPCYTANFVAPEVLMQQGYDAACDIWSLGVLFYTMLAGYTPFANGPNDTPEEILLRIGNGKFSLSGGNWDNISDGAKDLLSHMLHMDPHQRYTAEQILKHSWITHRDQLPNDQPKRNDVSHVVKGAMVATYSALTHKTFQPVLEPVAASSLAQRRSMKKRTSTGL
Sequence of kinases (KINOMEscan panel) (Homo sapiens, UniProt Q13043) (Q13043 whole entry): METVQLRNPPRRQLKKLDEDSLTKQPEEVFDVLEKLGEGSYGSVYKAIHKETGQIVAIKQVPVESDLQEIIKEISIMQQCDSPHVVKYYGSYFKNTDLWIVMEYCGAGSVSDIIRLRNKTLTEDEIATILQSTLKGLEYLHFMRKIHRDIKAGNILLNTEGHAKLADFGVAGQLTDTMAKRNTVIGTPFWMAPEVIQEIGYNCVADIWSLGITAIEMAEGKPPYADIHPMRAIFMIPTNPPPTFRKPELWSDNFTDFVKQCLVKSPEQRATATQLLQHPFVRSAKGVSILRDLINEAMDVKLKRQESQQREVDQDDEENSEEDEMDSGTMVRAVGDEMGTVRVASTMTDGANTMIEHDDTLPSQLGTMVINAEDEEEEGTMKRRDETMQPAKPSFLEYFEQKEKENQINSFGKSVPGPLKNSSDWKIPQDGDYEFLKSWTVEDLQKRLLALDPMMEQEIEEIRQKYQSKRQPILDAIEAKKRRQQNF
Sequence of kinases (KINOMEscan panel) (Homo sapiens, UniProt Q9P289) (Q9P289 whole entry): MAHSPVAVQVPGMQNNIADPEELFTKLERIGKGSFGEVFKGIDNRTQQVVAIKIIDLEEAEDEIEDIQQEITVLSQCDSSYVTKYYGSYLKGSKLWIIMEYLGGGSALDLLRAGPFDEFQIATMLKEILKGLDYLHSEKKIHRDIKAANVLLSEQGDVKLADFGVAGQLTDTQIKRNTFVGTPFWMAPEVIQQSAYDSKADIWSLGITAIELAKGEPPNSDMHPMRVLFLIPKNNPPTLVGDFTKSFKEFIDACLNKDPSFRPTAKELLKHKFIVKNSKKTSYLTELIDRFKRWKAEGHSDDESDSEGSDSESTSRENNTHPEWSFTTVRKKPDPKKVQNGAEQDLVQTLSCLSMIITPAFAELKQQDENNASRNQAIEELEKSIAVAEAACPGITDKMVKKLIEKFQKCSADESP
Sequence of kinases (KINOMEscan panel) (Homo sapiens, UniProt Q6P2M8) (Q6P2M8 whole entry): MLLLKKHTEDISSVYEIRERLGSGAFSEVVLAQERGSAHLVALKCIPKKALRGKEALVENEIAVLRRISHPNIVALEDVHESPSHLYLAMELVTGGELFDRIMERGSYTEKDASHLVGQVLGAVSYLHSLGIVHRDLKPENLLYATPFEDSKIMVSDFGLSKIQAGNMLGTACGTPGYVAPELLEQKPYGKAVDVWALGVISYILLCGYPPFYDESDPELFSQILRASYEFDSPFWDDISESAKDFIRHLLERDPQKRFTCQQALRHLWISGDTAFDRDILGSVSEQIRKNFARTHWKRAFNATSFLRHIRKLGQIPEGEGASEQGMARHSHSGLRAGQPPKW

With Cc1cccc(-c2nc(N(C)c3ccc4ncsc4c3)c3ccccc3n2)n1 [NK-161] as the molecule, how does the “KINOMEscan STK25/YSK1” value [1] read?
Its value is 2.

And the “KINOMEscan MAP3K13/LZK” value [2]?
Its value is 22.

What about the “KINOMEscan NUAK1/ARK5” value [3] of the same molecule?
Its value is 0.

What about the “KINOMEscan RPS6KA5(Kin.Dom.1-N-terminal)” value [4] of the same molecule?
The value was 21.

And the “KINOMEscan RPS6KA5(Kin.Dom.2-C-terminal)” value ([4]; kinase RPS6KA5(Kin.Dom.2-C-terminal))?
Its value is 0.

What about the “KINOMEscan RPS6KA4(Kin.Dom.1-N-terminal)” value ([5]; RPS6KA4(Kin.Dom.1-N-terminal)) of the same molecule?
Its value is 0.

And the “KINOMEscan RPS6KA4(Kin.Dom.2-C-terminal)” value ([5]; RPS6KA4(Kin.Dom.2-C-terminal))?
Its value is 0.

And the “KINOMEscan YES1/YES” value [6]?
The value was 0.

And the “KINOMEscan SLTM/MET” value [7]?
The value was 11.

And the “KINOMEscan MAPK3/ERK1” value [8]?
Its value is 14.

And the “KINOMEscan MAPK4/ERK4” value [9]?
The value was 6.

And the “KINOMEscan KDR/VEGFR2” value [10]?
The value was 4.

What about the “KINOMEscan MAP2K2/MEK2” value [11] of the same molecule?
The value was 27.

What about the “KINOMEscan MATK/CTK” value [12] of the same molecule?
The value was 8.

And the “KINOMEscan MAP2K3/MEK3” value [13]?
Its value is 0.

And the “KINOMEscan RPS6KA3/RSK2(Kin.Dom.1-N-terminal)” value [14]?
Its value is 5.

What about the “KINOMEscan RPS6KA3/RSK2(Kin.Dom.2-C-terminal)” value [14] of the same molecule?
The value was 27.

What about the “KINOMEscan MAP2K1/MEK1” value [15] of the same molecule?
Its value is 32.

What about the “KINOMEscan TEK/TIE2” value [16] of the same molecule?
Its value is 13.

And the “KINOMEscan PTK2/FAK” value [17]?
The value was 0.

And the “KINOMEscan STK4/MST1” value [18]?
The value was 17.

And the “KINOMEscan MAP2K5/MEK5” value [19]?
Its value is 0.

What about the “KINOMEscan MAPK7/ERK5” value [20] of the same molecule?
The value was 0.

And the “KINOMEscan STK3/MST2” value [21]?
The value was 0.

And the “KINOMEscan PTK6/BRK” value [22]?
The value was 0.

What about the “KINOMEscan NDR1/STK38” value [23] of the same molecule?
The value was 42.

What about the “KINOMEscan RPS6KA2/RSK3(Kin.Dom.1-N-terminal)” value [24] of the same molecule?
Its value is 0.

What about the “KINOMEscan RPS6KA2/RSK3(Kin.Dom.2-C-terminal)” value [24] of the same molecule?
Its value is 16.

What about the “KINOMEscan STK11/LKB1” value [25] of the same molecule?
The value was 0.

What about the “KINOMEscan NTRK3/TRKC” value [26] of the same molecule?
Its value is 29.

And the “KINOMEscan NTRK2/TRKB” value [27]?
Its value is 45.

What about the “KINOMEscan MYLK/MLCK” value [28] of the same molecule?
Its value is 8.

What about the “KINOMEscan PNCK/CAMK1B” value [29] of the same molecule?
The value was 0.

And the “KINOMEscan STK32C/YANK3” value [30]?
The value was 18.

And the “KINOMEscan NIM1K/NIM1” value [31]?
The value was 12.

And the “KINOMEscan MAP3K5/ASK1” value [32]?
Its value is 0.

And the “KINOMEscan NUAK2/SNARK” value [33]?
Its value is 15.

And the “KINOMEscan FYN/SLK” value [34]?
The value was 4.

And the “KINOMEscan STK32B/YANK2” value [35]?
Its value is 17.

What about the “KINOMEscan STK26/MST4” value [36] of the same molecule?
Its value is 5.

And the “KINOMEscan STK17A/DRAK1” value [37]?
The value was 0.

And the “KINOMEscan RPS6KA6/RSK4(Kin.Dom.1-N-terminal)” value [38]?
The value was 8.

What about the “KINOMEscan RPS6KA6/RSK4(Kin.Dom.2-C-terminal)” value [38] of the same molecule?
Its value is 4.

What about the “KINOMEscan STK38L/NDR2” value [39] of the same molecule?
The value was 0.

What about the “KINOMEscan SIK3/QSK” value [40] of the same molecule?
Its value is 0.
